Measured values from PubChem BioAssay (NCI).
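Results reflect a 48-hour exposure of cells in 96-well plates to compound at five concentrations. At the TGI there is no net growth.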 Where a SMILES comes first, the peptide text is derived from it. The star is where a group is joined. Boc = CC(C)(C)OC(=O)*; OtBu = CC(C)(C)O*

Assays:
Experiment in all cases: NCI tumour cell line growth inhibition, 48 h
[1] = tested on: HCT-116 colon
[2] = tested on: SN12C renal
[3] = tested on: SNB-19 CNS
[4] = tested on: SF-295 CNS
[5] = tested on: A549 NSCLC
[6] = tested on: NCI-H460 lung
[7] = tested on: OVCAR-5 ovarian
[8] = tested on: MALME-3M melanoma
[9] = tested on: SR leukemia
[10] = tested on: HOP-92 NSCLC

Row | SMILES | TGI [1] | TGI [2] | TGI [3] | TGI [4] | TGI [5] | TGI [6] | TGI [7] | TGI [8] | TGI [9] | TGI [10]
1 | O=C(NNC(=O)c1cc2ccccc2[nH]1)c1cc2ccccc2[nH]1 | > 100 µM | > 100 µM | > 100 µM | > 100 µM | > 100 µM | > 100 µM | > 100 µM | > 100 µM | > 100 µM | –
2 | CC(=O)OCC1OC(Sc2nc(-c3ccccc3)c(C#N)c(=O)n2C2OC(COC(C)=O)C(OC(C)=O)C(OC(C)=O)C2OC(C)=O)C(OC(C)=O)C(OC(C)=O)C1OC(C)=O (configuration not stated) | > 100 µM | > 100 µM | – | > 100 µM | > 100 µM | > 100 µM | > 100 µM | – | > 100 µM | > 100 µM
3 | O=C(O)c1ccc2nc(-c3ccccn3)c(-c3ccccn3)nc2c1 | > 100 µM | – | > 100 µM | > 100 µM | – | > 100 µM | – | – | > 100 µM | > 100 µM
4 | CN1CN(c2ccccc2)C2(CCN(CCCN(C)c3ccc(F)cc3)CC2)C1=O | 25.4 µM | 66.4 µM | 56.5 µM | 28.3 µM | 65.9 µM | 32.9 µM | 41.8 µM | 38.1 µM | – | –
5 | O=[N+]([O-])C1=Cc2c(O)ccc(O)c2C2c3ccccc3NC12 (configuration not stated) | 22.7 µM | 30.9 µM | 34.5 µM | 31.5 µM | 37.5 µM | 33.5 µM | 34.1 µM | – | > 64.3 µM | 20.7 µM
6 | Cc1[nH]n(C(=O)Cc2ccccc2)c(=O)c1/C=C1\C(=O)C=Cc2ccccc21 | > 100 µM | > 100 µM | > 100 µM | > 100 µM | > 100 µM | > 100 µM | > 100 µM | 40.2 µM | > 100 µM | –
7 | CC(C)c1cc(C(C)C)c(S(=O)(=O)N/N=C2\CC3CCC2(C)C3(C)C)c(C(C)C)c1 (configuration not stated) | > 100 µM | 38.2 µM | > 100 µM | 63.9 µM | > 100 µM | – | > 100 µM | > 100 µM | – | –
8 | O=[N+]([O-])c1ccc(-c2ccc([C@H]3CC(c4cc(F)c(Cl)cc4Cl)=NN3)o2)cc1 | > 100 µM | > 100 µM | > 100 µM | > 100 µM | – | > 100 µM | > 100 µM | > 100 µM | 77.1 µM | > 100 µM
9 | CC(C)(C)OC(=O)CC(NC(=O)OC(C)(C)C)C(=O)NC(Cc1ccccc1)C(N)=O (configuration not stated) (Boc-Asp(OtBu)-Phe-NH2; configuration not given here) | > 100 µM | > 100 µM | > 100 µM | > 100 µM | > 100 µM | > 100 µM | > 100 µM | > 100 µM | – | > 100 µM
10 | CN(C)CCCCN1c2ccccc2Sc2ccc(N=[N+]=[N-])cc21 | 16.3 µM | 22.2 µM | 23.5 µM | 17.8 µM | 22.6 µM | 16.2 µM | 13.5 µM | 3.17 µM | – | 13.4 µM
11 | O=[N+]([O-])c1cccc(-c2ccc([C@H]3CC(c4ccc(Cl)cc4)=NN3)o2)c1 | 31.2 µM | 53.4 µM | 89.7 µM | 88.5 µM | > 100 µM | – | > 100 µM | 71.6 µM | 32.7 µM | 67.6 µM
